# Laboratory results: patent US20150159141A1, “ISOLATED HUMAN LIVER TUMOR CELL LINE AND METHOD OF AGENT SCREENING” (Industrial Technology Research Institute, priority 2013, published 2015)
# Key:
# [1] = test system: human liver tumor cell line ITRI-H28; assay: Cell viability of ITRI-H28 cells after Sorafenib treatment (Alarmablue assay); type: cell-based; conditions: 48-hour treating period, P value 0.02, read-out: half maximal inhibitory concentration (IC50)
# Description: In the experiment, a plurality of plates are prepared with 1×10^4 ITRI-H28 cells seeded respectively thereon and divided into a plurality of groups, and the groups are treated with different concentrations of Sorafenib, such as 30, 15, 7.5, 3.75, 1.88, and 0.94 uM. Next, after a 48-hour treating period, a cell viability of each of the groups is measured by an Alarmablue measurement assay, and results are shown in FIG. 3.
# A calculation is done according to the results of FIG. 3, a half maximal inhibitory concentration (IC50) of Sorafenib in the ITRI-H28 cell line are about 2.79±0.41, and a statistical P value is 0.02. According to the above results, the human liver tumor cell line ITRI-H28 has a susceptibility to the HCV-related HCC drug, which is able to use in a HCV-related HCC drug screening. Furthermore, according to the above experiments, the human liver tumor cell line ITRI-H28 has cancer cell properties, which can be used widely in a liver drug screening.
# liver cancer = conditions: phase III of human clinical trials; cited from earlier work
smiles,measurement,setting,value
CNC(=O)c1cc(Oc2ccc(NC(=O)Nc3ccc(Cl)c(C(F)(F)F)c3)cc2)ccn1 [Sorafenib],IC50,[1],~2790 nM
same,extension of patient survival time,liver cancer,three
